Laboratory results taken from patent US9809574B2, “Isoindoline or isoquinoline compounds, a process for their preparation and pharmaceutical compositions containing them” (LES LABORATOIRES SERVIER, priority 2013, dated 2017).
Structures can show the parent of a compound that is named as a salt.

Assays:
[1] = target: Bcl-2 protein (histag-Bcl-2, UniProtKB P10415) (Homo sapiens (Human), UniProt P10415); experiment: Inhibition of Bcl-2 by the fluorescence polarisation technique; assay type: binding; details: fluorescence polarisation test; incubation for 2 hours; read-out: IC50 (nM) Bcl-2 FP
Description: For partial inhibitors, the percentage fluorescence polarisation inhibition for a given concentration of the test compound is indicated.

[2] = tested on: RS4; 11 leukaemia cell line; experiment: In vitro cytotoxicity, Microculture Tetrazolium Assay (MTT); assay type: cell-based; details: 11 cells exposed for 48 hours
Procedure: The cytotoxicity studies were carried out on the RS4; 11 leukaemia cell line and on H146 small Cell Lung Carcinoma cell line. The cells are distributed onto microplates and exposed to the test compounds for 48 hours. The cell viability is then quantified by a colorimetric assay, the Microculture Tetrazolium Assay (Cancer Res., 1987, 47, 939-942).

Bcl-2 protein, sequence (P10415 whole entry): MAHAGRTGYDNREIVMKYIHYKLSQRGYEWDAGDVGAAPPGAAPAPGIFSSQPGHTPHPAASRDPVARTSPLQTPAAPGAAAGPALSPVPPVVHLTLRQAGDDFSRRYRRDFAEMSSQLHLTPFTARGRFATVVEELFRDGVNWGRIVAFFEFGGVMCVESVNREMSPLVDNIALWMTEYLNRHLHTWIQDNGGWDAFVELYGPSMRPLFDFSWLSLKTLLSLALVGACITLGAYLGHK

SMILES | IC50 [1] | IC50 ([2]; Homo sapiens) | IC50 [2]
Cc1c(C(=O)N(C)c2ccc(O)cc2)cc(-c2cc3c(cc2C(=O)N2Cc4ccccc4C[C@H]2C)CN(C(=O)Oc2ccccc2)C3)n1C [Example 63, Phenyl 5-{4-[(4-hydroxyphenyl)(methyl)carbamoyl]-1,5-dimethyl-1H-pyrrol-2-yl}-6-[(3R)-3-methyl-1,2,3,4-tetrahydroisoquinoline-2-carbonyl]-2,3-dihydro-1H-isoindole-2-carboxylate] | 4.4 nM | 12 nM | 
C[C@@H]1Cc2ccccc2CN1C(=O)c1cc2c(cc1-c1cc(C(=O)N(C)c3ccc(O)cc3)c3n1CCCC3)CCN(C(=O)Cc1ccccc1)C2 [Example 36, N-(4-Hydroxyphenyl)-N-methyl-3-{7-[(3R)-3-methyl-1,2,3,4-tetrahydroisoquinoline-2-carbonyl]-2-(2-phenylacetyl)-1,2,3,4-tetrahydroisoquinolin-6-yl}-5,6,7,8-tetrahydroindolizine-1-carboxamide] | 4.8 nM | 6.2 nM | 
Cc1c(C(=O)N(C)c2ccc(O)cc2)cc(-c2cc3c(cc2C(=O)N2Cc4ccccc4C[C@H]2CN2CCN(C)CC2)CN(C(=O)Oc2ccccc2)CC3)n1C [Example 214, Phenyl 6-{4-[(4-hydroxyphenyl)(methyl)carbamoyl]-1,5-dimethyl-1H-pyrrol-2-yl}-7-[(3S)-3-[(4-methylpiperazin-1-yl)methyl]-1,2,3,4-tetrahydroisoquinoline-2-carbonyl]-1,2,3,4-tetrahydroisoquinoline-2-carboxylate] | 2.7 nM | 4.1 nM | 
CN(C(=O)c1cc(-c2cc3c(cc2C(=O)N2Cc4ccccc4C[C@H]2CN2CCOCC2)CN(S(=O)(=O)Cc2ccccc2)C3)n2c1CCCC2)c1ccc(O)cc1 [Example 38, N-(4-Hydroxyphenyl)-N-methyl-3-{6-[(3S)-3-(morpholin-4-ylmethyl)-1,2,3,4-tetrahydroisoquinoline-2-carbonyl]-2-phenylmethanesulfonyl-2,3-dihydro-1H-isoindol-5-yl}-5,6,7,8-tetrahydroindolizine-1-carboxamide] | 23 nM | 532 nM | 
Cc1ccc(OC(=O)N2CCc3cc(-c4cc(C(=O)N(c5ccc(O)cc5)c5cc(C#N)n(C)c5C)c(C)n4C)c(C(=O)N4Cc5ccccc5C[C@H]4CN4CCOCC4)cc3C2)cc1 [Example 805, Tolyl 6-[4-[(5-cyano-1,2-dimethyl-1H-pyrrol-3-yl)-(4-hydroxyphenyl)carbamoyl]-1,5-dimethyl-1H-pyrrol-2-yl]-7-[(3S)-3-(morpholinomethyl)-3,4-dihydro-1H-isoquinoline-2-carbonyl]-3,4-dihydro-1H-isoquinoline-2-carboxylate hydrochloride] | 3.1 nM |  | 0.12 nM
Cc1c(C(=O)N(C)c2ccc(O)cc2)cc(-c2cc3c(cc2C(=O)N2Cc4ccccc4C[C@H]2CN(C)C)CN(C(=O)C(F)(F)F)CC3)n1C [Example 782, 5-{7-[(3S)-3-[(Dimethylamino)methyl]-1,2,3,4-tetrahydroisoquinoline-2-carbonyl]-2-(trifluoroacetyl)-1,2,3,4-tetrahydroisoquinolin-6-yl}-N-(4-hydroxyphenyl)-N,1,2-trimethyl-1H-pyrrole-3-carboxamide] | 51 nM | 112 nM | 
C[C@@H]1Cc2ccccc2CN1C(=O)c1cc2c(cc1-c1cc(C(=O)N(C)c3ccc(O)cc3)c3n1CCCC3)CCN(C(=O)Cc1ccc(N3CCN(C)CC3)cc1)C2 [Example 97, N-(4-Hydroxyphenyl)-N-methyl-3-{7-[(3R)-3-methyl-1,2,3,4-tetrahydroisoquinoline-2-carbonyl]-2-{2-[4-(4-methylpiperazin-1-yl)phenyl]acetyl}-1,2,3,4-tetrahydroisoquinolin-6-yl}-5,6,7,8-tetrahydroindolizine-1-carboxamide] | 4.9 nM | 15 nM | 
Cc1c(C(=O)N(C)c2ccc(O)cc2)cc(-c2cc3c(cc2C(=O)N2Cc4ccccc4C[C@H]2C)CN(C(=O)Oc2ccc(F)cc2)C3)n1C [Example 106, 4-Fluorophenyl 5-{4-[(4-hydroxyphenyl)(methyl)carbamoyl]-1,5-dimethyl-1H-pyrrol-2-yl}-6-[(3R)-3-methyl-1,2,3,4-tetrahydroisoquinoline-2-carbonyl]-2,3-dihydro-1H-isoindole-2-carboxylate] | 5.3 nM | 38 nM | 
Cc1c(C(=O)N(C)c2ccc(O)cc2)cc(-c2cc3c(cc2C(=O)N2Cc4ccccc4C[C@H]2C)CN(C(=O)NCc2ccccc2)C3)n1C [Example 111, N-Benzyl-5-{4-[(4-hydroxyphenyl)(methyl)carbamoyl]-1,5-dimethyl-1H-pyrrol-2-yl}-6-[(3R)-3-methyl-1,2,3,4-tetrahydroisoquinoline-2-carbonyl]-2,3-dihydro-1H-isoindole-2-carboxamide] | 8.4 nM | 64 nM | 
C[C@@H]1Cc2ccccc2CN1C(=O)c1cc2c(cc1-c1cc(C(=O)N(C)c3ccc(O)cc3)c3n1CCCC3)CCN(C(=O)c1ccccc1)C2 [Example 35, 3-{2-Benzoyl-7-[(3R)-3-methyl-1,2,3,4-tetrahydroisoquinoline-2-carbonyl]-1,2,3,4-tetrahydroisoquinolin-6-yl}-N-(4-hydroxyphenyl)-N-methyl-5,6,7,8-tetrahydroindolizine-1-carboxamide] | 4.7 nM | 8.5 nM | 
CNC(=O)N1Cc2cc(C(=O)N3Cc4ccccc4C[C@H]3C)c(-c3cc(C(=O)N(C)c4ccc(O)cc4)c(C)n3C)cc2C1 [Example 170, 5-{4-[(4-Hydroxyphenyl)(methyl)carbamoyl]-1,5-dimethyl-1H-pyrrol-2-yl}-N-methyl-6-[(3R)-3-methyl-1,2,3,4-tetrahydroisoquinoline-2-carbonyl]-2,3-dihydro-1H-isoindole-2-carboxamide] | 12 nM | 491 nM | 
C[C@@H]1Cc2ccccc2CN1C(=O)c1cc2c(cc1-c1cc(C(=O)N(C)c3ccc(O)cc3)c3ccccn13)CN(C(=O)COc1ccccc1)C2 [Example 167, N-(4-Hydroxyphenyl)-N-methyl-3-{6-[(3R)-3-methyl-1,2,3,4-tetrahydroisoquinoline-2-carbonyl]-2-(2-phenoxyacetyl)-2,3-dihydro-1H-isoindol-5-yl}indolizine-1-carboxamide] | 6.5 nM | 20 nM | 
Cc1c(C(=O)N(C)c2ccc(O)cc2)cc(-c2cc3c(cc2C(=O)N2Cc4ccccc4C[C@H]2CN2CCOCC2)CN(C(=O)Oc2ccc(C(=O)O)cc2)CC3)n1C [Example 721, 4-(6-{4-[(4-Hydroxyphenyl)(methyl)carbamoyl]-1,5-dimethyl-1H-pyrrol-2-yl}-7-[(3S)-3-(morpholin-4-ylmethyl)-1,2,3,4-tetrahydroisoquinoline-2-carbonyl]-1,2,3,4-tetrahydroisoquinoline-2-carbonyloxy)benzoic acid] | 4.9 nM | > 150 nM | 
C[C@@H]1Cc2ccccc2CN1C(=O)c1cc2c(cc1-c1cc(C(=O)N(c3ccccc3)c3ccc(O)cc3)c3n1CCCC3)CN(C(=O)Oc1ccccc1)C2 [Example 133, Phenyl 5-{1-[(4-hydroxyphenyl)(phenyl)carbamoyl]-5,6,7,8-tetrahydroindolizin-3-yl}-6-[(3R)-3-methyl-1,2,3,4-tetrahydroisoquinoline-2-carbonyl]-2,3-dihydro-1H-isoindole-2-carboxylate] | 7 nM | 8.2 nM | 
C[C@@H]1Cc2ccccc2CN1C(=O)c1cc2c(cc1-c1cc(C(=O)N(C)c3ccc(O)cc3)c3n1CCCC3)CN(C(=O)OCc1cnc3[nH]ccc3c1)C2 [Example 64, 1H-pyrrolo[2,3-b]pyridin-5-ylmethyl 5-{1-[(4-hydroxyphenyl)(methyl)carbamoyl]-5,6,7,8-tetrahydroindolizin-3-yl}-6-[(3R)-3-methyl-1,2,3,4-tetrahydroisoquinoline-2-carbonyl]-2,3-dihydro-1H-isoindole-2-carboxylate] | 27 nM | 204 nM | 
Cc1c(C(=O)N(C)c2ccc(O)cc2)cc(-c2cc3c(cc2C(=O)N2Cc4ccccc4C[C@H]2CN2CCOCC2)CN(C(=O)CCC2CCCCC2)CC3)n1C [Example 132, 5-[2-(3-Cyclohexylpropanoyl)-7-[(3S)-3-(morpholin-4-ylmethyl)-1,2,3,4-tetrahydroisoquinoline-2-carbonyl]-1,2,3,4-tetrahydroisoquinolin-6-yl]-N-(4-hydroxyphenyl)-N,1,2-trimethyl-1H-pyrrole-3-carboxamide] | 4.6 nM | 32 nM | 
Cc1c(C(=O)N(C)c2ccc(O)cc2)cc(-c2cc3c(cc2C(=O)N2Cc4ccccc4C[C@H]2C)CN(C(=O)Oc2ccccc2)CC3)n1C [Example 68, Phenyl 6-{4-[(4-hydroxyphenyl)(methyl)carbamoyl]-1,5-dimethyl-1H-pyrrol-2-yl}-7-[(3R)-3-methyl-1,2,3,4-tetrahydroisoquinoline-2-carbonyl]-1,2,3,4-tetrahydroisoquinoline-2-carboxylate] | 2.9 nM | 1.8 nM | 
CN(C(=O)c1cc(-c2cc3c(cc2C(=O)N2Cc4ccccc4C[C@H]2CN2CCOCC2)CN(C(=O)Oc2ccc(C(N)=O)cc2)CC3)n2c1CCCC2)c1ccc(O)cc1 [Example 141, 4-Carbamoylphenyl 6-{1-[(4-hydroxyphenyl)(methyl)carbamoyl]-5,6,7,8-tetrahydroindolizin-3-yl}-7-[(3S)-3-(morpholin-4-ylmethyl)-1,2,3,4-tetrahydroisoquinoline-2-carbonyl]-1,2,3,4-tetrahydroisoquinoline-2-carboxylate] | 5.9 nM | 82 nM | 
Cc1c(C(=O)N(C)c2ccc(O)cc2)cc(-c2cc3c(cc2C(=O)N2Cc4ccccc4C[C@H]2C)CN(C(=O)OC2CCCCC2)CC3)n1C [Example 790, Cyclohexyl 6-{4-[(4-hydroxyphenyl)(methyl)carbamoyl]-1,5-dimethyl-1H-pyrrol-2-yl}-7-[(3R)-3-methyl-1,2,3,4-tetrahydroisoquinoline-2-carbonyl]-1,2,3,4-tetrahydroisoquinoline-2-carboxylate] | 3.4 nM | 20 nM | 
